Test results reported in US6914045B2, “Glycopeptide antibiotics” (Wyeth Holdings Corporation, priority 2001, dated 2005).
Values after ≈ are worked out from the molar mass of the structure shown.

How the values were obtained:
Test in all cases: in vitro antibacterial evaluation, MIC by broth dilution
Format in all cases: cell-based
Enterococcus sp. = conditions: broth dilution, 18 hours at 35° C.
Procedure, shortened: (§1)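 Following National Committee for Clinical Laboratory Standards recommendations (M7-A2), susceptibility was measured by dilution in Muller-Hinton II […]. Bacteria were seeded at 5×10^5 CFU/mL against compound concentrations from 64 down to 0.06 μg/mL.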

Escherichia coli = system: Escherichia coli
Procedure, shortened: as §1

Staphylococcus sp. = conditions: broth dilution, 18 hours at 35° C.; for MIC Staphylococcus aureus (GC 1131): strain GC 1131
Procedure, shortened: as §1

Streptococcus sp. = conditions: broth dilution, 18 hours at 35° C.
Procedure, shortened: as §1

CCCc1ccc(C2OCC3OC(OC4C(CO)OC(Oc5ccc(CC6NC(=O)C(C(C)c7ccccc7)NC(=O)CNC(=O)C(CO)NC(=O)C(C(O)C7CNC(=N)N7C7OC(CO)C(O)C(O)C7O)NC(=O)C(C(O)C7CNC(=N)N7)NC6=O)cc5)C(O)C4O)C(O)C(O)C3O2)cc1 (stereo not drawn) [Example 140, Cyclo[glycyl-β-methylphenylalanyl-O-[4-O-[4,6-O-(4-propylbenzylidene)hexopyranosyl]-hexopyranosyl]tyrosyl-3-(2-iminoimidazolidin-4-yl)seryl-3-(3-hexopyranosyl-2-iminoimidazolidin-4-yl)serylseryl]]
MIC Enterococcus avium (GC 4558) (Enterococcus sp.; Enterococcus avium (GC 4558)): 1 µg/mL (≈ 0.702 µM) | MIC Enterococcus faecalis (ATCC 29212) (Enterococcus sp.; Enterococcus faecalis (ATCC 29212)): <0.5 µg/mL | MIC Enterococcus faecalis (GC 2242) (Enterococcus sp.; Enterococcus faecalis (GC 2242)): <1 µg/mL | MIC Enterococcus faecalis (GC 2691) (Enterococcus sp.; Enterococcus faecalis (GC 2691)): 1 µg/mL (≈ 0.702 µM) | MIC Enterococcus faecalis (GC 3059) (Enterococcus sp.; Enterococcus faecalis (GC 3059)): 1 µg/mL (≈ 0.702 µM) | MIC Enterococcus faecalis (GC 4552) (Enterococcus sp.; Enterococcus faecalis (GC 4552)): 1 µg/mL (≈ 0.702 µM) | MIC Enterococcus faecalis (GC 4553) (Enterococcus sp.; Enterococcus faecalis (GC 4553)): 1 µg/mL (≈ 0.702 µM) | MIC Enterococcus faecalis (GC 4554) (Enterococcus sp.; Enterococcus faecalis (GC 4554)): 1 µg/mL (≈ 0.702 µM) | MIC Enterococcus faecalis (GC 6189) (Enterococcus sp.; Enterococcus faecalis (GC 6189)): 1 µg/mL (≈ 0.702 µM) | MIC Enterococcus faecium (GC 2243) (Enterococcus sp.; Enterococcus faecium (GC 2243)): 1 µg/mL (≈ 0.702 µM) | MIC Enterococcus faecium (GC 4556) (Enterococcus sp.; Enterococcus faecium (GC 4556)): 1 µg/mL (≈ 0.702 µM) | MIC Enterococcus faecium (GC 4557) (Enterococcus sp.; Enterococcus faecium (GC 4557)): 1 µg/mL (≈ 0.702 µM) | MIC Enterococcus faecalis (ATCC 29212) (Enterococcus sp.; strain ATCC 29212): <0.5 µg/mL | MIC Enterococcus faecalis (GC 2242) (Enterococcus sp.; strain GC 2242): <1 µg/mL | MIC Enterococcus faecium (GC 2243) (Enterococcus sp.; strain GC 2243): 1 µg/mL (≈ 0.702 µM) | MIC Enterococcus faecalis (GC 2691) (Enterococcus sp.; strain GC 2691): 1 µg/mL (≈ 0.702 µM) | MIC Enterococcus faecalis (GC 3059) (Enterococcus sp.; strain GC 3059): 1 µg/mL (≈ 0.702 µM) | MIC Enterococcus faecalis (GC 4552) (Enterococcus sp.; strain GC 4552): 1 µg/mL (≈ 0.702 µM) | MIC Enterococcus faecalis (GC 4553) (Enterococcus sp.; strain GC 4553): 1 µg/mL (≈ 0.702 µM) | MIC Enterococcus faecalis (GC 4554) (Enterococcus sp.; strain GC 4554): 1 µg/mL (≈ 0.702 µM) | MIC Enterococcus faecium (GC 4556) (Enterococcus sp.; strain GC 4556): 1 µg/mL (≈ 0.702 µM) | MIC Enterococcus faecium (GC 4557) (Enterococcus sp.; strain GC 4557): 1 µg/mL (≈ 0.702 µM) | MIC Enterococcus avium (GC 4558) (Enterococcus sp.; strain GC 4558): 1 µg/mL (≈ 0.702 µM) | MIC Enterococcus faecalis (GC 6189) (Enterococcus sp.; strain GC 6189): 1 µg/mL (≈ 0.702 µM) | MIC Escherichia coli (ATCC 25922) (Escherichia coli; strain ATCC 25922, 18 hours at 35° C.): 64 µg/mL (≈ 44.9 µM) | MIC Escherichia coli (GC 4559) (Escherichia coli; strain GC 4559, 18 hours at 35° C.): 64 µg/mL (≈ 44.9 µM) | MIC Escherichia coli (GC 4560) (Escherichia coli; strain GC 4560, 18 hours at 35° C.): 1 µg/mL (≈ 0.702 µM) | MIC Staphylococcus aureus (GC 1131) (Staphylococcus sp.; inoculum 5×10^5 CFU/mL): 1 µg/mL (≈ 0.702 µM) | MIC Staphylococcus aureus (ATCC 29213) (Staphylococcus sp.; strain ATCC 29213): 1 µg/mL (≈ 0.702 µM) | MIC Staphylococcus aureus (GC 1131) (Staphylococcus sp.): 1 µg/mL (≈ 0.702 µM) | MIC Staphylococcus aureus (GC 3051) (Staphylococcus sp.; strain GC 3051): 1 µg/mL (≈ 0.702 µM) | MIC Staphylococcus aureus (GC 3053) (Staphylococcus sp.; strain GC 3053): <0.5 µg/mL | MIC Staphylococcus aureus (GC 4541) (Staphylococcus sp.; strain GC 4541): 1 µg/mL (≈ 0.702 µM) | MIC Staphylococcus aureus (GC 4542) (Staphylococcus sp.; strain GC 4542): 1 µg/mL (≈ 0.702 µM) | MIC Staphylococcus aureus-SMITH (GC 4543) (Staphylococcus sp.; strain GC 4543): 1 µg/mL (≈ 0.702 µM) | MIC Staphylococcus aureus (GC 4544) (Staphylococcus sp.; strain GC 4544): 1 µg/mL (≈ 0.702 µM) | MIC Staphylococcus aureus (GC 4545) (Staphylococcus sp.; strain GC 4545): <0.5 µg/mL | MIC Staphylococcus haemolyticus (GC 4546) (Staphylococcus sp.; strain GC 4546): 1 µg/mL (≈ 0.702 µM) | MIC Coagulase Negative Staphylococcus (GC 4547) (Staphylococcus sp.; strain GC 4547): <0.5 µg/mL | MIC Coagulase Negative Staphylococcus (GC 4548) (Staphylococcus sp.; strain GC 4548): <0.5 µg/mL | MIC Coagulase Negative Staphylococcus (GC 4549) (Staphylococcus sp.; strain GC 4549): <0.5 µg/mL | MIC Coagulase Negative Staphylococcus (GC 4551) (Staphylococcus sp.; strain GC 4551): <0.5 µg/mL | MIC Coagulase Negative Staphylococcus (GC 6257) (Staphylococcus sp.; strain GC 6257): <0.5 µg/mL | MIC Staphylococcus aureus-SMITH (GC 4543) (Staphylococcus sp.; strain SMITH GC 4543): 1 µg/mL (≈ 0.702 µM) | MIC Streptococcus agalactiae (GC 4564) (Streptococcus sp.; Streptococcus agalactiae (GC 4564)): <0.5 µg/mL | MIC Streptococcus pneumoniae (ATCC 6301) (Streptococcus sp.; Streptococcus pneumoniae (ATCC 6301)): <0.5 µg/mL | MIC Streptococcus pneumoniae (GC 1894) (Streptococcus sp.; Streptococcus pneumoniae (GC 1894)): <0.5 µg/mL | MIC Streptococcus pneumoniae (GC 4565) (Streptococcus sp.; Streptococcus pneumoniae (GC 4565)): <0.5 µg/mL | MIC Streptococcus pyogenes (GC 4563) (Streptococcus sp.; Streptococcus pyogenes (GC 4563)): <0.5 µg/mL | MIC Streptococcus pneumoniae (ATCC 6301) (Streptococcus sp.; strain ATCC 6301): <0.5 µg/mL | MIC Streptococcus pneumoniae (GC 1894) (Streptococcus sp.; strain GC 1894): <0.5 µg/mL | MIC Streptococcus pyogenes (GC 4563) (Streptococcus sp.; strain GC 4563): <0.5 µg/mL | MIC Streptococcus agalactiae (GC 4564) (Streptococcus sp.; strain GC 4564): <0.5 µg/mL | MIC Streptococcus pneumoniae (GC 4565) (Streptococcus sp.; strain GC 4565): <0.5 µg/mL
